The results in this text go back to US20100216834A1, “HIV INTEGRASE INHIBITORS” (priority 2006, published 2010).

The test system of assay [1] is HIV. As to the kind of experiment: Assay for inhibition of HIV replication (spread assay): acute HIV infection of T-lymphoid cells. In kind it is cell-based. How it is done: Assays for the inhibition of acute HIV infection of T-lymphoid cells were conducted in accordance with Vacca, J. P. et al., Proc. Natl. Acad. Sci. USA 1994, 91: 4096. […] For example, the compounds of Examples 1 to 3 were tested in this assay and found to have the following IC95 values: […]

Assay [2] has as its target T1, recombinant integrase (HIV integrase) (Human immunodeficiency virus type 1 group M subtype B, UniProt P04585).
T1 construct: Strand Transfer Catalyzed by Recombinant Integrase
As to the kind of experiment: HIV integrase assay: strand transfer catalyzed by recombinant integrase. In kind it is biochemical. As to the method: Assays for the strand transfer activity of integrase were conducted in accordance with WO 02/30930 for recombinant integrase. […] For example, the compounds prepared in Examples 1 to 3 were tested in the integrase assay and found to have the following IC50 values:
Further description on conducting the assay using preassembled complexes is found in Wolfe, A. L. et al., J. Virol. 1996, 70: 1424-1432, Hazuda et al., J. Virol. 1997, 71: 7005-7011; Hazuda et al., Drug Design and Discovery 1997, 15: 17-24; and Hazuda et al., Science 2000, 287: 646-650.

[3] abbreviates: IC50 (inhibition of strand transfer activity).

Like-named read-outs stand apart in the source and are kept apart here.

On to `CN1C[C@H](O)C(C)(C)Cn2c(c3c(c(O)c2=O)C(=O)N(Cc2ccc(F)c(Cl)c2)CC3)C1=O` (single isomer, unassigned) [Ex. 1 - Isomer A-1], for which, in assay [1], the “IC95 in the presence of 10% FBS” value is 15 nM. In addition, the concentration for half-maximal inhibition (IC50) in assay [2] (setting [3]) was determined as 14 nM.
The corresponding values for `CN1C[C@H](O)C(C)(C)Cn2c(c3c(c(O)c2=O)C(=O)N(Cc2ccc(F)c(Cl)c2)CC3)C1=O` (single isomer, unassigned) [Ex. 1 - Isomer B-1] are 31 nM and 21 nM.
Take `CN1C[C@@H](O)C(C)(C)Cn2c(c3c(c(O)c2=O)C(=O)N(Cc2ccc(F)c(Cl)c2)CC3)C1=O` (single isomer, unassigned) [Ex. 2]: the “IC95 in the presence of 10% FBS” value in assay [1] stood at 31 nM. For the same compound, the IC50 in assay [2] (read-out: IC50 (inhibition of strand transfer activity)) was 3 nM.
Regarding `CC1CCCN(C)C(=O)c2c3c(c(O)c(=O)n21)C(=O)N(Cc1ccc(F)c(Cl)c1)CC3` (single isomer, unassigned) [Ex. 3 - Diasteromer A-3, 11-(3-Chloro-4-fluorobenzyl)-9-hydroxy-2,6-dimethyl-3,4,5,6,12,13-hexahydro-2H[1,4]diazocino[2,1-a]-2,6-naphthyridine-1,8,10(11H)-trione], the “IC95 in the presence of 10% FBS” value in assay [1] came out at 125 nM. In addition, the IC50 in assay [2] (setting [3]) turned out to be 17 nM.
For `CC1CCCN(C)C(=O)c2c3c(c(O)c(=O)n21)C(=O)N(Cc1ccc(F)c(Cl)c1)CC3` (single isomer, unassigned) [Ex. 3 - Diasteromer B-3, 11-(3-Chloro-4-fluorobenzyl)-9-hydroxy-2,6-dimethyl-3,4,5,6,12,13-hexahydro-2H[1,4]diazocino[2,1-a]-2,6-naphthyridine-1,8,10(11H)-trione], the “IC95 in the presence of 10% FBS” value in assay [1] amounted to 11 nM. For the same compound, the IC50 in assay [2] (setting [3]) stood at 17 nM.
The corresponding values for `CC1CCCN(C)C(=O)c2c3c(c(O)c(=O)n21)C(=O)N(Cc1ccc(F)c(Cl)c1)CC3` (single isomer, unassigned) [Ex. 3 - Diasteromer C-3, 11-(3-Chloro-4-fluorobenzyl)-9-hydroxy-2,6-dimethyl-3,4,5,6,12,13-hexahydro-2H[1,4]diazocino[2,1-a]-2,6-naphthyridine-1,8,10(11H)-trione] are 250 nM and 8 nM.
Regarding `CC1CCCN(C)C(=O)c2c3c(c(O)c(=O)n21)C(=O)N(Cc1ccc(F)c(Cl)c1)CC3` (single isomer, unassigned) [Ex. 3 - Diasteromer D-3, 11-(3-Chloro-4-fluorobenzyl)-9-hydroxy-2,6-dimethyl-3,4,5,6,12,13-hexahydro-2H[1,4]diazocino[2,1-a]-2,6-naphthyridine-1,8,10(11H)-trione], the “IC95 in the presence of 10% FBS” value in assay [1] stood at 8 nM. Also, the 50% inhibitory concentration (IC50) in assay [2] (setting [3]) was found to be 8 nM.
